Inhibition and IC50 data for five molecules are collected here from patent US20060116407A1, “Amide derivatives” (priority 2004, published 2006).

pIC50: −log10 of the molar value.

What is called pIC50 is −log10 of the IC50, conventionally taken in molar units. The low end stands for a high IC50, the high end for a low IC50.

In one experiment the target is T1, HER-2 (Homo sapiens, UniProt P04626).
T1 construct: endogenous in cells; host or cells: Calu-3 (ATCC HTB-55)
Put plainly: Inhibition of HER-2 phosphorylation in Calu-3 tumor cell line. Format: cell-based. To be noted: Calu-3 cells, compound 1 μM, 16 h, pY 1248 in HER-2, percentage of DMSO control; read-out: Percent inhibition of HER2-phosphorylation (compound concentration 1 μM). As to the method: Inhibition of HER-2 Phosphorylation in Calu-3 Tumor Cell Line
2×10^5 Calu-3 (ATTC HTB-55) cells per well were plated in a 12-well plate. After 4 days cells were starved for 16 h in Dulbecco's Modified Eagle Medium (DMEM)/0.5% Fetal Calf Serum (FCS)/1% Glutamine. During this 16 h period cells were incubated with a solution of the test compound in dimethylsulfoxide(DMSO), so that the final concentration of the compound is 1 μM and the final volume of DMSO is 0.5%. Afterwards cells were lysed in lyses buffer containing 1% Triton®X-100, 10% Glycerol, 1 mM Ethylene glycol-bis(2-aminoethylether)-N,N,N′,N′-tetraacetic acid (EGTA), 1.5 mM MgCl2, 150 mM NaCl, 50 mM 4-(2-hydroxyethyl)-1-piperazineethanesulfonic acid (HEPES) buffer pH 7.5, 1 mM Phenylmethylsulfonyl fluoride (PMSF), 10 ∥g/mL Aprotinin and […] Orthovanadate. Cell lysates were analyzed on a Sodium Dodecyl Sulfate Polyacrylamide Gel Electrophoresis (SDS PAGE) and after transfer to a nitrocellulose membrane detected with an antibody specifically recognizing the pY 1248 in HER-2. Inhibition of HER-2 phosphorylation is calculated as percentage of the control, which is treated with DMSO only.

In the next experiment the test system is HEK293 cells. Put plainly: Viability assay of HEK293 cells (CellTiter-Glo). It is filed as cell-based. To be noted: Homo sapiens, 168 h, 7 days, 3 μM to 0.00015 μM, luminescence. As to the method:
Viability Assay of HEK293 Cells
A viability assay was performed using the CellTiter-Glo™ Luminescent Cell Viability Assay (see Promega Corporation's Technical Publication No. 288, pp. 1-11 [revised 2.04] which is hereby incorporated by reference in its entirety). This assay is a homogeneous method of determining the number of viable cells in culture based on quantitation of the ATP present, which signals the presence of metabolically active cells. The assay is designed for use with multiwell formats, making it ideal for automated high-throughput screening (HTS), cell proliferation and cytotoxicity assays. The homogeneous assay procedure involves adding a single reagent (containing luciferase, luciferan substrate, and buffer) directly to cells cultured in serum-supplemented medium. Cell washing, removal of medium and multiple pipetting steps are not required. The system detects as few as 15 cells/well in a 384-well format in 10 minutes after adding reagent and mixing.
The homogeneous “add-mix-measure” format results in cell lysis and generation of a luminescent signal proportional to the amount of ATP present. The amount of ATP is directly proportional to the number of cells present in culture. The above-referenced assay generates a “glow-type” luminescent signal, produced by the luciferase reaction, which has a half-life generally greater than five hours, depending on cell type and medium used. The extended half-life eliminates the need to use reagent injectors and provides flexibility for continuous or batch mode processing of multiple plates. The unique homogeneous format avoids errors that may be introduced by other ATP measurement methods that require multiple steps.
HEK293 cells (human embryonic kidney cell line transformed by Adenovirus 5 fragments, ATCC-No. CRL 1573) were cultivated in Dulbecco's Modified Eagle Medium (DMEM) (1×) liquid (high glucose) (which includes L-Alanyl-L-Glutamine [a stabilized a form of L-Glutamine], 4500 mg/L glucose, and 110 mg/L sodium pyruvate) from Invitrogen Corporation (Invitrogen Catalog Number 31966-021 [now 10569-010] which is hereby incorporated by reference in its entirety), 5% Fetal Calf Serum (FCS, Sigma Cat-No. F4135 (FBS) which is hereby incorporated by reference in its entirety), and 100 Units/ml penicillin/100 μg/ml streptomycin(=Pen/Strep from Invitrogen Cat. No. 15140 which is hereby incorporated by reference in its entirety). For the assay the cells were seeded in 384 well plates, 5000 cells per well, in the same medium. The next day the test compounds were added in various concentrations ranging from 3 μM to 0.00015 μM (10 concentrations, 1:3 diluted). After 7 days the above viability assay was performed in accordance with the following steps: • Step 1: The cell-plate was equilibrated to room temperature for approximately 30 minutes and than the assay reagent was added. • Step 2: The contents were carefully mixed for 15 minutes to induce cell lysis. • Step 3: After 45 minutes the luminescent signal was measured in Victor 2, (scanning multiwell spectrophotometer, Wallac). Details: 1st Day: • Medium: Dulbecco's Modified Eagle Medium (DMEM) (1×) liquid (high glucose) (which includes L-Alanyl-L-Glutamine [a stabilized a form/source of L-Glutamine], 4500 mg/L glucose, and 110 mg/L sodium pyruvate) from Invitrogen Corporation (Invitrogen Catalog Number 31966-021 [now 10569-010]), 5% Fetal Calf Serum (FCS, Sigma Cat-No. F4135 (FBS)), and Pen/Strep (Invitrogen Cat. No. 15140). • HEK293 (ATCC-No. CRL 1573): 5000 cells in 60 μl per well of 384 well plate. (Greiner 781098, white plates) • Incubate 24 h at 37° C., 5% CO2 2nd Day: Induction (Substance Testing):
In general the dilution steeps are 1:3 a) Add 8 μl of 10 mM stock solution of compound to 72 μl DMSO b) dilute 9×1:3 (always 30 μl to 60 μl DMSO) in this DMSO dilution row (results in 10 wells with concentrations from 1000 μM to 0.06 μM) c) dilute each concentration 1: 4.8 (10 μl compound dilution to 38 μl medium) […]
(Cellular ATP, detected with luciferase, serves as a proxy for viable cell number.)

T1 sequence (P04626 23-1255): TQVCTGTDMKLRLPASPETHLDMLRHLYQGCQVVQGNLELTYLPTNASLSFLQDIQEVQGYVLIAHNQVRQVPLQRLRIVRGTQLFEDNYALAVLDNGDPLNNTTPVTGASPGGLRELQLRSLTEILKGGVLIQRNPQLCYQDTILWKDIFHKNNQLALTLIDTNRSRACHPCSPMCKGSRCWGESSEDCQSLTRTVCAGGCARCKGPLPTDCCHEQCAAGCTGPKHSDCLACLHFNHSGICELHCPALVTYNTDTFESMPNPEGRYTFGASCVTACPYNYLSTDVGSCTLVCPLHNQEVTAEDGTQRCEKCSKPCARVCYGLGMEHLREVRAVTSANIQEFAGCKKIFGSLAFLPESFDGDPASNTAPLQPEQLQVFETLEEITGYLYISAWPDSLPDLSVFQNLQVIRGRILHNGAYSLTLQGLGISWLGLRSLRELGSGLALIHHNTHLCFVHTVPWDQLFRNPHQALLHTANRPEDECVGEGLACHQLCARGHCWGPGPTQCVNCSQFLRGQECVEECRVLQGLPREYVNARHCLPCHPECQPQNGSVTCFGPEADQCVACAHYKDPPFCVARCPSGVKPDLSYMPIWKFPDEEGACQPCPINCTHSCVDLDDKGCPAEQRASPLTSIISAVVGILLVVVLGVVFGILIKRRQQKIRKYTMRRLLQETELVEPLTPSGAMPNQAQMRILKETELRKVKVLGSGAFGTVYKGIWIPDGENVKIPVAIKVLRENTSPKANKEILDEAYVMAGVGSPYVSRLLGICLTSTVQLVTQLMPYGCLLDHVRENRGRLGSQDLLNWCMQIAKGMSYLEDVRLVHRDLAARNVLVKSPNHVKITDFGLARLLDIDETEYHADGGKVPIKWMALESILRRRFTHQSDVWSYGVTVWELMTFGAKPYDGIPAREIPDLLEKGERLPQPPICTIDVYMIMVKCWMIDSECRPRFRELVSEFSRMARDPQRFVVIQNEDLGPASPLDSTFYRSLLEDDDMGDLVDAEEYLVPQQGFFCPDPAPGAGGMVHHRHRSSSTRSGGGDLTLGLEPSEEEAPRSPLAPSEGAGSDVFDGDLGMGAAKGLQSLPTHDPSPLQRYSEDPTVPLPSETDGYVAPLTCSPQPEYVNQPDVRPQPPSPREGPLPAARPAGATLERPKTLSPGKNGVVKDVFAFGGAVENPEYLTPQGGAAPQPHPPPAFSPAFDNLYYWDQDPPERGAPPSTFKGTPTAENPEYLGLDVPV

Take `O=C(Nc1nc(COc2ccc(CCCCn3ccnn3)cc2)cs1)c1ccc(Cl)cc1` [Example 52-5, 4-Chloro-N-{4-[4-(4-[1,2,3]triazol-1-yl-butyl)-phenoxymethyl]-thiazol-2-yl}-benzamide]: on HER-2, the inhibition at 1 µM is 70 to 80%. Further, the pIC50 with HEK293 cells was 6.30 to 8.30.
Consider `O=C(Nc1ccc(Cl)cc1F)c1coc(COc2ccc(CCCCn3ccnn3)cc2)n1` [Example 14, 2-[4-(4-[1,2,3]Triazol-1-yl-butyl)-phenoxymethyl]-oxazole-4-carboxylic acid (4-chloro-2-fluoro-phenyl)-amide], for which, on HER-2, the inhibition at 1 µM amounted to 72%. The molecule further gave a pIC50 in the experiment on HEK293 cells of 5.52 to 6.30.
Consider `O=C(Nc1ccc(C(F)(F)F)cc1)c1coc(COc2ccc(CCCCn3ccnn3)cc2)n1` [Example 13, 2-[4-(4-[1,2,3]Triazol-1-yl-butyl)-phenoxymethyl]-oxazole-4-carboxylic acid (4-trifluoromethyl-phenyl)-amide], for which the inhibition at 1 µM on HER-2 was greater than 80%. Also, the negative-log IC50 (pIC50) with HEK293 cells is 6.30 to 8.30.
As for `Cc1ccc(NC(=O)c2coc(COc3ccc(CCCCn4ccnn4)cc3)n2)cc1F` [Example 36, 2-[4-(4-[1,2,3]Triazol-1-yl-butyl)-phenoxymethyl]-oxazole-4-carboxylic acid (3-fluoro-4-methyl-phenyl)-amide], the inhibition at 1 µM at HER-2 was 70 to 80%. The molecule further had a pIC50 in the experiment with HEK293 cells of 6.30 to 8.30.
On to `O=C(Nc1ccc(C(F)(F)F)cc1)c1csc(COc2ccc(CCCCn3ccnn3)cc2)n1` [Example 41, 2-[4-(4-[1,2,3]Triazol-1-yl-butyl)-phenoxymethyl]-thiazole-4-carboxylic acid (4-trifluoromethyl-phenyl)-amide], for which, on HER-2, the inhibition at 1 µM was greater than 80%. The molecule also had a negative-log IC50 (pIC50) in the experiment on HEK293 cells of 6.30 to 8.30.
